What was measured:
Type in all cases: physicochemical
[1] = Particle size distribution of the components (Mastersizer laser diffraction)
Description: In some cases, the particle size of the dispersion or solution is measured prior to being subjected to UV/vis spectroscopy. Known methods of sizing the dispersion or solution include sieve analysis, direct imaging and laser diffraction. In the present disclosure, a Mastersizer (Malvern Instruments) laser diffraction device was used.

[2] = In-line UV/vis transmission crystallinity detection of piroxicam in Kollidon VA64 (solubility maximum, twin-screw extruder); details: in Kollidon VA64, hot melt extrusion, amorphous, homogeneous and transparent below this loading
Description: A twin-screw extruder was used to assess the solubility maximum for a mixture of the non-steroidal anti-inflammatory drug (NSAID) piroxicam (PRX) and the carrier polymer Kollidon VA64. The mixture was continuously analysed while traversing the extruder screw using a system of in-line UV/vis spectrometers and the input of the PRX was adjusted until crystallinity was first detected.
UV/vis transmission spectra were obtained for 15, 18, 20, 23 and 25 wt % PRX samples.

[3] = Off-line XRD crystallinity detection of PRX / Kollidon VA64 mixtures (Bruker instrument); details: in Kollidon VA64, milled samples, no crystallinity detected at 25 wt %
Description: The samples were analysed by a UV/vis spectrometer in transmission mode (FIG. 1) and an XRD spectrum of the same samples was also obtained for comparison and verification (FIG. 2). The XRD samples required milling and analysis offline whereas UV/vis has the advantages that it can be performed rapidly in-line without milling.
XRD spectra were obtained on a Bruker instrument for each of pure solid PRX, Kollidon VA64, and 20, 25 and 30 wt % PRX mixtures separately. […] Only at 30 wt % PRX loading, well above the maximum solubility when there is substantially higher crystallinity, does the XRD spectra first show peaks that correlate with the pure XRD spectra of PRX.

| D10 [1] | D50 [1] | D90 [1] | PRX loading at which the first microcrystalline domains are observed (solubility maximum in carrier) [2] | PRX loading at which XRD spectra first show peaks of crystalline PRX [3] | Structure (SMILES) |
| --- | --- | --- | --- | --- | --- |
| 8 μm | 26 μm | 87 μm |  |  | Cc1cc(C#N)cc(C)c1Oc1nc(Nc2ccc(C#N)cc2)nc(N)c1Br [crystalline etravirine (ETR), 4-[6-amino-5-bromo-2-(4-cyanoanilino)pyrimidin-4-yl]oxy-3,5-dimethylbenzonitrile] |
|  |  |  | 25 wt % | 30 wt % | CN1C(C(=O)Nc2ccccn2)=C(O)c2ccccc2S1(=O)=O [PRX, 4-hydroxy-2-methyl-1,1-dioxo-N-pyridin-2-yl-1$1^6,2-benzothiazine-3-carboxamide] |

Source: patent publication US12313613B2, “Method of testing crystallinity in amorphous pharmaceutical compositions” (ColVisTec AG, priority 2019, dated 2025)
